Data published in patent US8906925B2, “Pyrido[4,3-B]indoles containing rigid moieties” (Medivation Technologies, Inc., priority 2008, dated 2014).
Where two headings read alike, the source gives them in different places.

Legend:
[1] = molecular target: T1, human dopamine D2L receptor (Homo sapiens, UniProt P14416); test: Aequorin functional assay, dopamine D2L (CHO-K1); assay type: cell-based; set-up: host or cells: CHO-K1 co-expressing mitochondrial apoaequorin and Gα16; details: for inhibition at 0.005 µM / inhibition at […] / inhibition at 0.05 µM / inhibition at 0.5 µM / inhibition at 5 µM / inhibition at 15 µM: CHO-K1; for inhibition at 0.005 µM: Antagonist concentration 5 nM; for inhibition at 0.05 µM: Antagonist concentration 50 nM; for inhibition at 0.5 µM: Antagonist concentration 500 nM; for inhibition at 5 µM: Antagonist concentration 5000 nM; for inhibition at 15 µM: Antagonist concentration 15000 nM
T1 sequence (P14416 whole entry): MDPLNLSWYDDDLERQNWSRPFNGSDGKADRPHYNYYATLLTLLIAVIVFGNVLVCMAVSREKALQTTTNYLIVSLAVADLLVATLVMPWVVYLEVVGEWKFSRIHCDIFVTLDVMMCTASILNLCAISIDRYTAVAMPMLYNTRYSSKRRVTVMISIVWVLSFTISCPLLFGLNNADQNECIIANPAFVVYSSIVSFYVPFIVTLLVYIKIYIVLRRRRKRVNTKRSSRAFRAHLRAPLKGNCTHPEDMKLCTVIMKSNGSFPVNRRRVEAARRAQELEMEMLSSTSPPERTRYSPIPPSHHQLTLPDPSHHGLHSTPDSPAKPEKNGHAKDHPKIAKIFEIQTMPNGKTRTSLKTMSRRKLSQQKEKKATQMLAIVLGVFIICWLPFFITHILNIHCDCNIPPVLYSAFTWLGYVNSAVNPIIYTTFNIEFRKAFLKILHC
From the text: (§1) To study the functional activity of compounds of the invention on the human recombinant dopamine D2L with Aequorin, GTPγS and cAMP functional assays and on the human recombinant serotonin 5-HT2A receptor with Aequorin, CHO-K1 cell lines expressing D2L or 5-HT2A recombinant receptor, mitochondrial apoaequorin and Gα16 were used for the Aequorin assay. CHO-K1 cell line expressing the recombinant D2L receptor was used for the cAMP assay and was amplified to prepare membranes used for the GTPγS assay.
(§2) Cells were incubated at room temperature for at least 4 h with Coelenterazine h (Molecular Probes). Dose response curves with reference compounds were performed before testing the compounds of the invention. D2L reference agonist and antagonist were quinpirol (Tocris, 1061) and haloperidol (Tocris, 0931), respectively. […] For agonist testing, 50 μL of cell suspension were injected on 50 μL of test compound or reference agonist plated in a 96-well plate. The resulting emission of light was recorded using the Hamamatsu Functional Drug Screening System 6000 (FDSS 6000). Following an incubation of 15 min after the first injection, 100 μL of reference agonist at a concentration corresponding to its EC80 was injected on the 100 μL of the mixture of cell suspension and test compound, for antagonist testing. The resulting emission of light was recorded using the same luminometer as for agonist testing. To standardize the emission of recorded light (determination of the “100% signal”) across plates and across different experiments, some of the wells contained 100 μM digitonin or a saturating concentration of ATP (20 μM). Plates also contained the reference agonist at a concentration equivalent to the EC100 and EC80 obtained during the test validation.

[2] = molecular target: human recombinant serotonin 5-HT2A receptor (Homo sapiens, UniProt P28223); test: Aequorin functional assay, serotonin 5-HT2A (CHO-K1); assay type: cell-based; set-up: host or cells: CHO-K1 cells co-expressing mitochondrial apoaequorin and Gα16
Sequence of human recombinant serotonin 5-HT2A receptor (P28223 whole entry): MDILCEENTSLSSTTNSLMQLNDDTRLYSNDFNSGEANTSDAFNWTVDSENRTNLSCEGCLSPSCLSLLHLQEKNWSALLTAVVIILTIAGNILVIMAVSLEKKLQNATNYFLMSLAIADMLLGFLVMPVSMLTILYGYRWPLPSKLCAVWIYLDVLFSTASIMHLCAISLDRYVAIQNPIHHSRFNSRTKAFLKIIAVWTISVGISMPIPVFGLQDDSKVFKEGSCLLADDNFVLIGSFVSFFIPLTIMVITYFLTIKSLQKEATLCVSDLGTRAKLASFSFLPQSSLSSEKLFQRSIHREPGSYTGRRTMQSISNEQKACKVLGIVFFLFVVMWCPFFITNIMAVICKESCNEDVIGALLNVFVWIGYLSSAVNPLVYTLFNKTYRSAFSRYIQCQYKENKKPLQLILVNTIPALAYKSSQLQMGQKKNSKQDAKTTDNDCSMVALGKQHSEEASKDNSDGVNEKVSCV
From the text: as §1, §2

[3] = molecular target: T1, human dopamine D2L receptor; test: cAMP functional assay, dopamine D2L (CHO-K1, HTRF); assay type: cell-based; set-up: host or cells: CHO-K1 co-expressing mitochondrial apoaequorin and Gα16; details: for inhibition at 0.005 µM: antagonist concentration 5 nM; for inhibition at 0.05 µM: antagonist concentration 50 nM; for inhibition at 0.5 µM: antagonist concentration 500 nM; for inhibition at 5 µM: antagonist concentration 5000 nM; for inhibition at 15 µM: antagonist concentration 15000 nM
From the text: as §1
The test was performed in 96 well plates. For agonist testing, 12 μL of cells (2,500 cells/well) were mixed with 6 μL of increasing concentrations of test compound or reference agonist and 6 μL of Forskolin […] (Calbiochem, cat n^o 344270). For antagonist testing, 12 μL of cells (2,500 cells/well) were mixed with 6 μL of test compound or reference antagonist at increasing concentrations. After incubation of 10 min at room temperature, 6 μL of a mix of Forskolin […] final concentration and the reference agonist at a final concentration corresponding to the EC80 were added. The plates were then incubated for 30 min at room temperature.

Sprague Dawley rats = test: Subchronic PCP-induced social interaction deficits; assay type: in vivo, rat
From the text: Phencyclidine (PCP) administered to humans as well to experimental animals induces full-spectrum of schizophrenia symptoms, including negative symptoms and cognitive deficits. A major symptom of schizophrenia is considered to be social isolation/withdrawal as part of the cluster of negative symptoms. Subchronic treatment with PCP in rats leads to the development of clear signs of social withdrawal as measured by deficits in the interaction time with a cage intruder rat.
Male Sprague Dawley rats (˜150 g on arrival) from Harlan (Indiana) were used in this study. Upon receipt, rats were group housed in OPTI rats ventilated cages. Rats were housed in groups of 2-3/cage for the remainder of the study. During the period of acclimation, rats were examined on a regular basis, handled, and weighed to assure adequate health and suitability. Rats were maintained on a 12/12 light/dark cycle with the light on at 7:00 a.m. The room temperature was maintained between 20 and 23° C. with a relative humidity maintained between 30% and 70%. Chow and water were provided ad libitum for the duration of the study. Animals were randomly assigned across treatment groups and balanced by age. Animals were not disturbed between test days.
The following compounds were used. 1) Compound No. 88 or 90 (0.3, 1 and 3 mg/kg; p.o.) was dissolved in 3% Tween and PBS and administered 30 min prior to test; 2) PCP (2 mg/kg; s.c.) was dissolved in saline and administered twice daily for 5 days prior to test day; 3) Clozapine (2.5 mg/kg; i.p.) was dissolved in 5% PEG:5% Tween 80 in saline and administered 30 min. prior to test. All compounds were administered at a dose volume of 1 mL/kg.
For five days prior to test, rats were injected twice daily with either PCP (2 mg/kg; s.c) or saline (s.c). On day 6 and following a 30 min pretreatment with vehicle, clozapine or Compound No. 90, a pair of rats, unfamiliar to each other, receiving the same treatment were placed in a white plexiglas open field arena (24″×17″×8″) and allowed to interact with each other for 6 min. Social interactions (‘SI’) included: sniffing the other rat; grooming the other rat; climbing over or under or around the other rat; following the other rat; or exploring the ano-genital area of the other rat. Passive contact and aggressive contact were not considered a measure of social interaction. The time the rats spent interacting with each other during the 6 min test was recorded by a trained observer. The social interaction chambers were thoroughly cleaned between the different rats.
Data were analyzed by analysis of variance (ANOVA) followed by post-hoc analysis (e.g., Fischer, Dunnett) when appropriate. An effect was considered significant if p<0.05.

[4] = Antagonist concentration 150 nM
[5] = Antagonist concentration 1500 nM
[6] = antagonist concentration 150 nM
[7] = antagonist concentration 1500 nM
[8] = CHO-K1, read-out: 5-HT2A Antagonist % Inhibition (Aequorin)

Row | SMILES | D2L Agonist % Activation (Aequorin) ([1]; Agonist concentration 10 nM) | D2L Agonist % Activation (Aequorin) ([1]; Agonist concentration 30 nM) | D2L Agonist % Activation (Aequorin) ([1]; Agonist concentration 100 nM) | D2L Agonist % Activation (Aequorin) ([1]; Agonist concentration 300 nM) | D2L Agonist % Activation (Aequorin) ([1]; Agonist concentration 1000 nM) | D2L Agonist % Activation (Aequorin) ([1]; Agonist concentration 3000 nM) | D2L Agonist % Activation (Aequorin) ([1]; Agonist concentration 10000 nM) | D2L Agonist % Activation (Aequorin) ([1]; Agonist concentration 30000 nM) | inhibition at 0.005 µM [1] | inhibition at […] ([1]; Antagonist concentration 15 nM) | inhibition at 0.05 µM [1] | inhibition at […] [1, 4] | inhibition at 0.5 µM [1] | inhibition at […] [1, 5] | inhibition at 5 µM [1] | inhibition at 15 µM [1] | inhibition at 0.005 µM [3] | inhibition at […] ([3]; antagonist concentration 15 nM) | inhibition at 0.05 µM [3] | inhibition at […] [3, 6] | other results
1 | C/C(=C\n1c2c(c3cc(Cl)ccc31)CN(C)CC2)c1ccc(F)cc1 [Compound 83, (E)-8-chloro-5-(2-(4-fluorophenyl)prop-1-enyl)-2,3,4,5-tetrahydro-2-methyl-1H-pyrido[4,3-b]indole] | 2.43% | 0.68% | 1.26% | 0.92% | −0.12% | 0.00% | 6.32% | 84.25% | 93.5% | 96.4% | 96.8% | 96.8% | 96.8% | 96% | 96% | 92.3% | 75.5% | 97.8% | 98.2% | 104% | inhibition at 0.005 µM ([2]; CHO-K1, Antagonist concentration 5 nM, read-out: 5-HT2A Antagonist % Inhibition (Aequorin)): 85.4%; inhibition at […] ([2]; CHO-K1, Antagonist concentration 15 nM): 96.6%; inhibition at 0.05 µM ([2]; CHO-K1, Antagonist concentration 50 nM, read-out: 5-HT2A Antagonist % Inhibition (Aequorin)): 98.5%; inhibition at […] ([2]; CHO-K1, Antagonist concentration 150 nM): 98.7%; inhibition at 0.5 µM ([2]; CHO-K1, Antagonist concentration 500 nM, read-out: 5-HT2A Antagonist % Inhibition (Aequorin)): 98.8%; inhibition at […] ([2]; CHO-K1, Antagonist concentration 1500 nM): 98.9%; inhibition at 5 µM ([2]; CHO-K1, Antagonist concentration 5000 nM, read-out: 5-HT2A Antagonist % Inhibition (Aequorin)): 97.8%; inhibition at 15 µM ([2]; CHO-K1, Antagonist concentration 15000 nM, read-out: 5-HT2A Antagonist % Inhibition (Aequorin)): 97%; inhibition at 0.5 µM [3]: 106%; inhibition at […] [3, 7]: 107%; inhibition at 5 µM [3]: 106%; inhibition at 15 µM [3]: 111%
2 | C/C(=C\n1c2c(c3cc(Cl)ccc31)CN(C)CC2)c1ccncc1 [Compound 90, (E)-8-chloro-2,3,4,5-tetrahydro-2-methyl-5-(2-(pyridin-4-yl)prop-1-enyl)-1H-pyrido[4,3-b]indole] | 0.95% | 0.25% | −0.23% | −0.24% | −0.48% | −1.20% | −0.78% | −0.92% | 95.5% | 97.3% | 93.5% | 96.8% | 97.9% | 97.2% | 97.4% | 96.1% | 84.1% | 91.7% | 94.7% | 94% | 5-HT2A Agonist % Activation (Aequorin) ([2]; Agonist concentration 10 nM): 0.62%; 5-HT2A Agonist % Activation (Aequorin) ([2]; Agonist concentration 30 nM): 0.26%; 5-HT2A Agonist % Activation (Aequorin) ([2]; Agonist concentration 100 nM): 0.27%; 5-HT2A Agonist % Activation (Aequorin) ([2]; Agonist concentration 300 nM): 0.18%; 5-HT2A Agonist % Activation (Aequorin) ([2]; Agonist concentration 1000 nM): 0.11%; 5-HT2A Agonist % Activation (Aequorin) ([2]; Agonist concentration 3000 nM): 0.04%; 5-HT2A Agonist % Activation (Aequorin) ([2]; Agonist concentration 10000 nM): 0.02%; 5-HT2A Agonist % Activation (Aequorin) ([2]; Agonist concentration 30000 nM): 0.49%; inhibition at 0.005 µM [2, 8]: 73%; inhibition at 0.05 µM [2, 8]: 98.5%; inhibition at 0.5 µM [2, 8]: 98.4%; inhibition at 5 µM [2, 8]: 98.5%; inhibition at 15 µM [2, 8]: 97.6%; inhibition at 0.5 µM [3]: 93.7%; inhibition at […] [3, 7]: 100%; inhibition at 5 µM [3]: 100%; inhibition at 15 µM [3]: 102%; PCP-induced decrease of social interaction (Sprague Dawley rats; 1 mg/kg p.o., 30 min prior to test): fully reversed; sedation in the home cage during pretreatment time (Sprague Dawley rats; 3 mg/kg p.o.): Mild sedation; deficits in social interaction time induced by chronic PCP (Sprague Dawley rats; 0.3 and 3 mg/kg p.o., did not reach control levels (partial reversal)): significantly attenuated
3 | C/C(=C\n1c2c(c3cc(C)ccc31)CN(C)CC2)c1ccncc1 [Compound 88, (E)-2,3,4,5-tetrahydro-2,8-dimethyl-5-(2-(pyridin-4-yl)prop-1-enyl)-1H-pyrido[4,3-b]indole] |  |  |  |  |  |  |  |  |  |  |  |  |  |  |  |  |  |  |  |  | PCP-induced decrease of social interaction time (Sprague Dawley rats; 0.3, 1 and 3 mg/kg p.o., 30 min prior to test): attenuated
